# Measurements published in ChEMBL document CHEMBL1201862, “PubChem BioAssay data set” (2004).
#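 Protocol summary: plate cells (96-well), add compound at 5 concentrations, incubate 48 h, interpolate endpoints linearly. The concentration for 50% growth inhibition is given as GI50.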 Active and inactive are the calls of the source. Rule as the data show it: active = GI50 up to about 1.1 µM and inactive = higher.
# Assays:
# Experiment in all cases: NCI tumour cell line growth inhibition, 48 h
# EKVX = test system: EKVX
# IGROV-1 = test system: IGROV-1
# NCI-H522 = test system: NCI-H522
# SK-OV-3 = test system: SK-OV-3
# MDA-MB-435 = test system: MDA-MB-435
# 786-0 = test system: 786-0
# U-251 = test system: U-251
# PC-3 = test system: PC-3
# LOX IMVI = test system: LOX IMVI
# A549 = test system: A549
# T47D = test system: T47D
# CCRF-CEM = test system: CCRF-CEM
# K562 = test system: K562
# SF-539 = test system: SF-539
# KM12 = test system: KM12
# SF-268 = test system: SF-268
# SNB-19 = test system: SNB-19
# SK-MEL-5 = test system: SK-MEL-5
# M14 = test system: M14
# OVCAR-3 = test system: OVCAR-3
# SR = test system: SR
# UACC-257 = test system: UACC-257
# CAKI-1 = test system: CAKI-1
# MCF7 = test system: MCF7
# UACC-62 = test system: UACC-62
# SN12C = test system: SN12C
# HCT-15 = test system: HCT-15
# Malme-3M = test system: Malme-3M
# SNB-75 = test system: SNB-75
# NCI-H226 = test system: NCI-H226
# RXF 393 = test system: RXF 393
# OVCAR-5 = test system: OVCAR-5
# HL-60 = test system: HL-60
# COLO 205 = test system: COLO 205
# MDA-N = test system: MDA-N
# MOLT-4 = test system: MOLT-4
# UO-31 = test system: UO-31
# NCI-H23 = test system: NCI-H23
# HOP-62 = test system: HOP-62
# RPMI-8226 = test system: RPMI-8226
# ACHN = test system: ACHN
# DU-145 = test system: DU-145
# SW-620 = test system: SW-620
# OVCAR-8 = test system: OVCAR-8
# TK-10 = test system: TK-10
# HCT-116 = test system: HCT-116
# MDA-MB-231 = test system: MDA-MB-231
# NCI/ADR-RES = test system: NCI/ADR-RES
# SF-295 = test system: SF-295
# BT-549 = test system: BT-549
# HT-29 = test system: HT-29
# SK-MEL-28 = test system: SK-MEL-28
smiles,measurement,setting,value
CN1CN(c2ccccc2)C2(CCN(CC(C)(c3ccc(F)cc3)C3OCCCO3)CC2)C1=O (configuration not stated),GI50,EKVX,16.7 µM (inactive)
same,GI50,IGROV-1,18.5 µM (inactive)
same,GI50,NCI-H522,16.8 µM (inactive)
same,GI50,SK-OV-3,26.4 µM (inactive)
same,GI50,MDA-MB-435,10.9 µM (inactive)
same,GI50,786-0,20.4 µM (inactive)
same,GI50,U-251,12.8 µM (inactive)
same,GI50,PC-3,17.4 µM (inactive)
same,GI50,LOX IMVI,17.5 µM (inactive)
same,GI50,A549,25.9 µM (inactive)
same,GI50,T47D,17.7 µM (inactive)
same,GI50,CCRF-CEM,13 µM (inactive)
same,GI50,K562,13.2 µM (inactive)
same,GI50,SF-539,13.2 µM (inactive)
same,GI50,KM12,15.5 µM (inactive)
same,GI50,SF-268,17.8 µM (inactive)
same,GI50,SNB-19,17.3 µM (inactive)
same,GI50,SK-MEL-5,15.7 µM (inactive)
same,GI50,M14,16.9 µM (inactive)
same,GI50,OVCAR-3,11.5 µM (inactive)
same,GI50,SR,10 µM (inactive)
same,GI50,UACC-257,16 µM (inactive)
same,GI50,CAKI-1,19.7 µM (inactive)
same,GI50,MCF7,13 µM (inactive)
same,GI50,UACC-62,17.9 µM (inactive)
same,GI50,SN12C,18.1 µM (inactive)
same,GI50,HCT-15,15.3 µM
same,GI50,Malme-3M,15.6 µM (inactive)
same,GI50,SNB-75,18.7 µM (inactive)
same,GI50,NCI-H226,18.9 µM (inactive)
same,GI50,RXF 393,19.7 µM (inactive)
same,GI50,OVCAR-5,8.69 µM (inactive)
same,GI50,HL-60,14.7 µM (inactive)
same,GI50,COLO 205,17.7 µM (inactive)
same,GI50,MDA-N,17.3 µM (inactive)
same,GI50,MOLT-4,9.71 µM (inactive)
same,GI50,UO-31,2.32 µM (inactive)
same,GI50,NCI-H23,14.9 µM (inactive)
same,GI50,HOP-62,16.6 µM (inactive)
same,GI50,RPMI-8226,10.2 µM (inactive)
same,GI50,ACHN,17.7 µM (inactive)
same,GI50,DU-145,27.6 µM (inactive)
same,GI50,SW-620,20.6 µM (inactive)
same,GI50,OVCAR-8,19.4 µM (inactive)
same,GI50,TK-10,15.5 µM (inactive)
same,GI50,HCT-116,14.9 µM (inactive)
same,GI50,MDA-MB-231,24.2 µM (inactive)
same,GI50,NCI/ADR-RES,12.9 µM (inactive)
same,GI50,SF-295,18.4 µM (inactive)
same,GI50,BT-549,5.31 µM (inactive)
same,GI50,HT-29,10.6 µM (inactive)
same,GI50,SK-MEL-28,16.8 µM (inactive)
